What was measured:
[1] = system: Amaranthus retroflexus; test: greenhouse post-emergence herbicidal test; assay type: in vivo; details: for post-emergence activity against pig weed: application rate 1.0 kg/ha
Protocol: (§1) The seeds of the test plants were sown separately for each species. For the post-emergence treatment, the test plants were grown to a plant height of from 3 to 15 cm, depending on the plant habit, and only then treated with the active ingredients which had been suspended or emulsified in water. To this end, the test plants were either sown directly and grown in the same containers, or they were first grown separately as seedlings and transplanted into the test containers a few days prior to treatment. […] (active substance). Depending on the species, the plants were kept at from 10 to 25° C. and 20 to 35° C., respectively. The test period extended over 2 to 4 weeks. During this time, the plants were tended, and their response to the individual treatments was evaluated. Evaluation was carried out using a scale of from 0 to 100. 100 means no emergence of the plants, or complete destruction of at least the aerial parts, and 0 means no damage or normal course of growth. The plants used in the greenhouse experiments belonged to the following species: [table]

[2] = system: Chenopodium album; test: greenhouse post-emergence herbicidal test; assay type: in vivo; details: for post-emergence activity against lambsquarters: application rate 1.0 kg/ha
Protocol: as §1

[3] = system: Setaria viridis; test: greenhouse post-emergence herbicidal test; assay type: in vivo; details: for post-emergence activity against green foxtail: application rate 1.0 kg/ha
Protocol: as §1

[4] = system: Galium aparine; test: greenhouse post-emergence herbicidal test; assay type: in vivo; details: application rate 1.0 kg/ha
Protocol: as §1

[5] = system: Polygonum convolvulus; test: greenhouse post-emergence herbicidal test; assay type: in vivo; details: application rate 1.0 kg/ha
Protocol: as §1

[6] = system: Echinocloa crus-galli; test: greenhouse post-emergence herbicidal test; assay type: in vivo; details: application rate 1.0 kg/ha
Protocol: as §1

In the case of `CNC(=O)C(NC(=O)c1cn(C)nc1C(F)(F)F)C(C)c1ccccc1C` (mixture of isomers) [Compound 4.6], the “post-emergence activity against pig weed” value [1] is reported as “very good”, the “post-emergence activity against lambsquarters” value [2] is reported as “very good” and the “post-emergence activity against green foxtail” value [3] is reported as “very good”.
`CNC(=O)C(NC(=O)c1cn(C)nc1C(F)(F)F)C(O)c1ccccc1` (racemic) [Compound 4.9, N-(2-Hydroxy-1-methylcarbamoyl-2-phenylethyl)-1-methyl-3-trifluoromethyl-1H-pyrazole-4-carboxamide] gave a melting point of 216 °C.
In the case of `CCC(CC)C(=O)OC(c1ccccc1)C(NC(=O)c1cn(C)nc1C(F)(F)F)C(=O)NC` (racemic) [Compound 4.14], the “post-emergence activity against pig weed” value [1] is reported as “very good”, the “post-emergence activity against lambsquarters” value [2] is reported as “very good” and the “post-emergence activity against green foxtail” value [3] is reported as “very good”.
`CNC(=O)C(NC(=O)c1cn(C)nc1C(F)(F)F)C(OC(=O)C(C)(C)C)c1ccccc1` (racemic) [Compound 4.15, 2-Methylcarbamoyl-2-[(1-methyl-3-trifluoromethyl-1H-pyrazole-4-carbonyl)amino]-1-phenylethyl 2,2-dimethylpropionate] gave a melting point of 158 °C.
For `CNC(=O)C(NC(=O)c1cn(C)nc1C(F)(F)F)C(OS(C)(=O)=O)c1ccccc1` (racemic) [Compound 4.22], the “post-emergence action on pig weed” value ([1]; application rate 0.5 kg/ha) was “very good”, the “post-emergence action on lambsquarters” value ([2]; application rate 0.5 kg/ha) was “very good” and the “post-emergence action on green foxtail” value ([3]; application rate 0.5 kg/ha) was “very good”.
With `CNC(=O)C(NC(=O)c1ccsc1C(F)(F)F)C(OC(=O)COC)c1ccccc1` (racemic) [Compound 5.6] the “post-emergence activity against pig weed” value [1] was “very good”, the “post-emergence activity against lambsquarters” value [2] was “very good” and the “post-emergence activity against green foxtail” value [3] was “very good”.
With `CNC(=O)C(NC(=O)c1cscc1C(F)(F)F)C(OC(=O)N(C)C)c1ccccc1` (racemic) [Compound 5.8] the “post-emergence activity against cleavers harrif” value [4] was “very good”, the “post-emergence activity against black bindweed” value [5] was “very good” and the “post-emergence activity against lambsquarters” value [2] was “very good”. For the same molecule, the “post-emergence activity against cockspur” value [6] was “very good” and the “post-emergence activity against green foxtail” value [3] was “very good”.
For `CNC(=O)C(NC(=O)c1cc(C)oc1C(F)(F)F)C(O)c1ccccc1` (racemic) [Compound 5.14], the “post-emergence activity against cleavers harrif” value [4] was “very good”, the “post-emergence activity against lambsquarters” value [2] was “very good” and the “post-emergence activity against cockspur” value [6] was “very good”. For the same molecule, the “post-emergence activity against green foxtail” value [3] was “very good”.
With `CNC(=O)C(NC(=O)c1cc(C)oc1C(F)(F)F)C(OC(=O)N(C)C)c1ccccc1` (racemic) [Compound 5.16] the “post-emergence activity against black bindweed” value [5] was “very good”, the “post-emergence activity against lambsquarters” value [2] was “very good” and the “post-emergence activity against cockspur” value [6] was “very good”. For the same molecule, the “post-emergence activity against green foxtail” value [3] was “very good”.
With `CNC(=O)C(NC(=O)c1ccncc1C(F)(F)F)C(O)c1ccccc1` (racemic) [Compound 5.23] the “post-emergence activity against cleavers harrif” value [4] was “very good”, the “post-emergence activity against pig weed” value [1] was “very good” and the “post-emergence activity against lambsquarters” value [2] was “very good”. For the same molecule, the “post-emergence activity against green foxtail” value [3] was “very good”.

From patent US20070060480A1, “Heteroaroyl-substituted phenylalanineamides” (priority 2003, published 2007)
